In PubChem BioAssay AID2060498 (Molecular Pharmacology Branch, DTP, NCI, 2025):
Values belong to the compound of their own block, whether it stands above or below them.

Tested on: 171881-019-R-J1-PDC tumor spheroids, viability
Experiment: Anticancer human tumor 171881-019-R-J1-PDC patient-derived invasive breast carcinoma cell line growth inhibition [GQUAD]
Settings: spheroids with HUVEC and MSC; for IC50: curve of first compound; for viability, T/C: stronger effect = lower value
Summary of the method: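 Tumor cells were grown as complex spheroids with HUVEC endothelial cells and mesenchymal stem cells as stroma. G-quadruplex stabilizers were combined with targeted agents over half-log dilutions from near the clinical Cmax, or from 10 microM.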

[1] = second compound 0.0316 µM, first compound 0.0316 µM
[2] = second compound 0.0316 µM, first compound 0.1 µM
[3] = second compound 0.0316 µM, first compound 0.316 µM
[4] = second compound 0.0316 µM, first compound 1 µM
[5] = second compound 0.0316 µM, first compound 3.16 µM
[6] = second compound 0.0316 µM, first compound 10 µM
[7] = second compound 0.1 µM, first compound 0.0316 µM
[8] = second compound 0.1 µM, first compound 0.1 µM
[9] = second compound 0.1 µM, first compound 0.316 µM
[10] = second compound 0.1 µM, first compound 1 µM
[11] = second compound 0.1 µM, first compound 3.16 µM
[12] = second compound 0.1 µM, first compound 10 µM
[13] = second compound 0.316 µM, first compound 0.0316 µM
[14] = second compound 0.316 µM, first compound 0.1 µM
[15] = second compound 0.316 µM, first compound 0.316 µM
[16] = second compound 0.316 µM, first compound 1 µM
[17] = second compound 0.316 µM, first compound 3.16 µM
[18] = second compound 0.316 µM, first compound 10 µM
[19] = second compound 1 µM, first compound 0.0316 µM
[20] = second compound 1 µM, first compound 0.1 µM
[21] = second compound 1 µM, first compound 0.316 µM
[22] = second compound 1 µM, first compound 1 µM
[23] = second compound 1 µM, first compound 3.16 µM
[24] = second compound 1 µM, first compound 10 µM
[25] = second compound 3.16 µM, first compound 0.0316 µM
[26] = second compound 3.16 µM, first compound 0.1 µM
[27] = second compound 3.16 µM, first compound 0.316 µM
[28] = second compound 3.16 µM, first compound 1 µM
[29] = second compound 3.16 µM, first compound 3.16 µM
[30] = second compound 3.16 µM, first compound 10 µM
[31] = second compound 10 µM, first compound 0.0316 µM
[32] = second compound 10 µM, first compound 0.1 µM
[33] = second compound 10 µM, first compound 0.316 µM
[34] = second compound 10 µM, first compound 1 µM
[35] = second compound 10 µM, first compound 3.16 µM
[36] = second compound 10 µM, first compound 10 µM
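Further: spheroids exposed to compounds for 7 days.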
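Wherever viability, T/C is given: 100% = DMSO vehicle control viability.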

Compound: COc1ccc([C@@H](O)c2cc(-c3ncnc4cc(N5CCOCC5)ccc34)c(F)cc2Cl)nn1 + CN(C)c1ccc(Nc2c3ccc(NC(=O)CCN4CCCC4)cc3nc3cc(NC(=O)CCN4CCCC4)ccc23)cc1
IC50 (second compound 0.0316 µM): 544 nM
IC50 (second compound 0.1 µM): 570 nM
IC50 (second compound 0.316 µM): 335 nM
IC50 (second compound 1 µM): < 31.6 nM
IC50 (second compound 3.16 µM): < 31.6 nM
IC50 (second compound 10 µM): < 31.6 nM
viability, T/C [1]: 97.2%
viability, T/C [2]: 85.8%
viability, T/C [3]: 62.5%
viability, T/C [4]: 37.6%
viability, T/C [5]: 7.36%
viability, T/C [6]: 1.57%
viability, T/C [7]: 94.5%
viability, T/C [8]: 87%
viability, T/C [9]: 64.2%
viability, T/C [10]: 37.5%
viability, T/C [11]: 7.17%
viability, T/C [12]: 1.52%
viability, T/C [13]: 79.3%
viability, T/C [14]: 72.5%
viability, T/C [15]: 52.2%
viability, T/C [16]: 18.2%
viability, T/C [17]: 4.99%
viability, T/C [18]: 0.9%
viability, T/C [19]: 27.1%
viability, T/C [20]: 17.4%
viability, T/C [21]: 18.6%
viability, T/C [22]: 4.62%
viability, T/C [23]: 1.37%
viability, T/C [24]: 0.46%
viability, T/C [25]: 1.64%
viability, T/C [26]: 2.1%
viability, T/C [27]: 1.49%
viability, T/C [28]: 0.45%
viability, T/C [29]: 0.38%
viability, T/C [30]: 0.23%
viability, T/C [31]: 0.4%
viability, T/C [32]: 0.57%
viability, T/C [33]: 0.32%
viability, T/C [34]: 0.19%
viability, T/C [35]: 0.14%
viability, T/C [36]: 0.38%

Compound: COc1ncnc(C2CC2)c1-c1ncc2cnn(Cc3ccc(-c4nc(C(F)(F)F)cn4C(C)C)cc3)c2n1 + Cc1[nH]c2ccc(F)cc2c1-c1nc2c3cccnc3c3ncccc3c2[nH]1
IC50 (second compound 0.0316 µM): > 10000 nM
IC50 (second compound 0.1 µM): > 10000 nM
IC50 (second compound 0.316 µM): > 10000 nM
IC50 (second compound 1 µM): > 10000 nM
IC50 (second compound 3.16 µM): < 31.6 nM
IC50 (second compound 10 µM): < 31.6 nM
viability, T/C [1]: 88.4%
viability, T/C [2]: 93.6%
viability, T/C [3]: 97.8%
viability, T/C [4]: 104%
viability, T/C [5]: 90.5%
viability, T/C [6]: 88.4%
viability, T/C [7]: 97.5%
viability, T/C [8]: 87.9%
viability, T/C [9]: 99.1%
viability, T/C [10]: 98.8%
viability, T/C [11]: 83.1%
viability, T/C [12]: 81.8%
viability, T/C [13]: 71.4%
viability, T/C [14]: 74.2%
viability, T/C [15]: 75.4%
viability, T/C [16]: 72%
viability, T/C [17]: 72.3%
viability, T/C [18]: 62.7%
viability, T/C [19]: 65.1%
viability, T/C [20]: 54.2%
viability, T/C [21]: 59.4%
viability, T/C [22]: 60.3%
viability, T/C [23]: 71.1%
viability, T/C [24]: 60.3%
viability, T/C [25]: 8.81%
viability, T/C [26]: 4.91%
viability, T/C [27]: 7.33%
viability, T/C [28]: 8.01%
viability, T/C [29]: 11.8%
viability, T/C [30]: 6.52%
viability, T/C [31]: 40.8%
viability, T/C [32]: 38.5%
viability, T/C [33]: 30.7%
viability, T/C [34]: 50%
viability, T/C [35]: 42.6%
viability, T/C [36]: 35.2%

IC50 (second compound 0.0316 µM): 1020 nM
IC50 (second compound 0.1 µM): 1720 nM
IC50 (second compound 0.316 µM): 1860 nM
IC50 (second compound 1 µM): 3420 nM
IC50 (second compound 3.16 µM): 3710 nM
IC50 (second compound 10 µM): 3200 nM
Compound: CC(C)n1c(=O)n(C)c2cnc3cc(F)c(-c4ccc(OCCCN5CCCCC5)nc4)cc3c21 + Cc1cnc(CNC(=O)c2c(=O)c3ccc(N4CCCN(C)CC4)nc3n3c2sc2ccccc23)cn1
viability, T/C [1]: 63.7%
viability, T/C [2]: 56.6%
viability, T/C [3]: 59.6%
viability, T/C [4]: 48.2%
viability, T/C [5]: 39.1%
viability, T/C [6]: 16.1%
viability, T/C [7]: 62.4%
viability, T/C [8]: 62.2%
viability, T/C [9]: 58.6%
viability, T/C [10]: 55.9%
viability, T/C [11]: 43.8%
viability, T/C [12]: 17.4%
viability, T/C [13]: 66.6%
viability, T/C [14]: 65%
viability, T/C [15]: 60.5%
viability, T/C [16]: 58.9%
viability, T/C [17]: 43.3%
viability, T/C [18]: 20.8%
viability, T/C [19]: 66.7%
viability, T/C [20]: 63.5%
viability, T/C [21]: 66.5%
viability, T/C [22]: 57.7%
viability, T/C [23]: 53.2%
viability, T/C [24]: 25.4%
viability, T/C [25]: 62.1%
viability, T/C [26]: 63%
viability, T/C [27]: 66.5%
viability, T/C [28]: 60.7%
viability, T/C [29]: 53.1%
viability, T/C [30]: 28.2%
viability, T/C [31]: 61.8%
viability, T/C [32]: 64.2%
viability, T/C [33]: 61.7%
viability, T/C [34]: 58.7%
viability, T/C [35]: 50.4%
viability, T/C [36]: 25.3%
